# ± gives the expanded uncertainty stated by the source.
# Experiment: activity coefficient (dimensionless); of the first substance listed, at infinite dilution; xn = mol fraction of the nth substance listed
# Settings: 101 kPa, Liquid, Chromatography, x1 = 0
Structure (SMILES),activity coefficient (358.15 K),activity coefficient (368.15 K),activity coefficient (378.15 K),activity coefficient (388.15 K),activity coefficient (398.15 K),activity coefficient (408.15 K),activity coefficient (418.15 K),activity coefficient (428.15 K)
C=CCCCCCCCC [1-decene] + CCCCn1cc[n+](C)c1.CS(=O)(=O)[O-],193 ± 13,187 ± 13,182 ± 12,179 ± 12,–,–,–,–
C#CCCCC [1-hexyne] + CCCCn1cc[n+](C)c1.CS(=O)(=O)[O-],8.02 ± 0.55,8.52 ± 0.58,9.06 ± 0.62,9.64 ± 0.66,–,–,–,–
CCCO [propan-1-ol] + CCCCn1cc[n+](C)c1.[Cl-],–,–,–,–,0.408 ± 0.034,0.434 ± 0.035,0.464 ± 0.036,0.501 ± 0.038
CCCOCCC [dipropyl ether] + CCCCn1cc[n+](C)c1.CS(=O)(=O)[O-],38.1 ± 2.6,38.7 ± 2.6,38.9 ± 2.7,39.4 ± 2.7,–,–,–,–
CCOCC [diethyl ether] + CCCCn1cc[n+](C)c1.CS(=O)(=O)[O-],14.7 ± 1,14.9 ± 1,15 ± 1,15.3 ± 1.1,–,–,–,–
c1ccsc1 [thiophene] + CCCCn1cc[n+](C)c1.CS(=O)(=O)[O-],1.72 ± 0.12,1.81 ± 0.12,1.94 ± 0.13,2.05 ± 0.14,–,–,–,–
CCO [ethanol] + CCCCn1cc[n+](C)c1.COP(=O)([O-])OC,–,–,–,–,0.16 ± 0.029,0.173 ± 0.029,0.189 ± 0.029,0.205 ± 0.029
CO [methanol] + CCCCn1cc[n+](C)c1.COP(=O)([O-])OC,–,–,–,–,0.097 ± 0.03,0.105 ± 0.03,0.115 ± 0.03,0.125 ± 0.03
CCC(C)(C)OC [2-methoxy-2-methylbutane] + CCCCn1cc[n+](C)c1.CS(=O)(=O)[O-],23.8 ± 1.6,24.2 ± 1.6,24.7 ± 1.7,25.3 ± 1.7,–,–,–,–
C#CCCCC [1-hexyne] + CCCCn1cc[n+](C)c1.[Cl-],7.33 ± 0.5,7.85 ± 0.54,8.19 ± 0.56,8.61 ± 0.59,–,–,–,–
CCC[N+](=O)[O-] [1-nitropropane] + CCCCn1cc[n+](C)c1.CS(=O)(=O)[O-],1.89 ± 0.13,1.96 ± 0.13,2.02 ± 0.14,2.13 ± 0.14,–,–,–,–
CCCOCCC [dipropyl ether] + CCCCn1cc[n+](C)c1.COP(=O)([O-])OC,13.9 ± 0.95,13.7 ± 0.94,13.6 ± 0.93,13.4 ± 0.92,–,–,–,–
C1=CCCCC1 [cyclohexene] + CCCCn1cc[n+](C)c1.CS(=O)(=O)[O-],18.4 ± 1.3,18.6 ± 1.3,18.7 ± 1.3,19 ± 1.3,–,–,–,–
COC(C)(C)C [2-methoxy-2-methylpropane] + CCCCn1cc[n+](C)c1.[Cl-],24.6 ± 1.7,23.8 ± 1.6,23 ± 1.6,22.9 ± 1.6,–,–,–,–
C#CCCC [1-pentyne] + CCCCn1cc[n+](C)c1.[Cl-],4.89 ± 0.33,5.25 ± 0.36,5.51 ± 0.38,5.78 ± 0.39,–,–,–,–
CCC(=O)OC [methyl propanoate] + CCCCn1cc[n+](C)c1.[Cl-],8 ± 0.55,8.09 ± 0.55,8.2 ± 0.56,8.31 ± 0.57,–,–,–,–
CC(C)O [propan-2-ol] + CCCCn1cc[n+](C)c1.[Cl-],–,–,–,–,0.542 ± 0.04,0.577 ± 0.041,0.619 ± 0.043,0.668 ± 0.045
C=CCCCC [hex-1-ene] + CCCCn1cc[n+](C)c1.CS(=O)(=O)[O-],39.7 ± 2.7,40 ± 2.7,40 ± 2.7,40.3 ± 2.8,–,–,–,–
C=CCCCC [hex-1-ene] + CCCCn1cc[n+](C)c1.COP(=O)([O-])OC,13.9 ± 0.95,13.7 ± 0.94,13.4 ± 0.91,13.2 ± 0.9,–,–,–,–
CC(C)OC(C)C [diisopropyl ether] + CCCCn1cc[n+](C)c1.COP(=O)([O-])OC,14.4 ± 0.98,14.3 ± 0.97,14.2 ± 0.97,14.1 ± 0.96,–,–,–,–
CCCC=O [butanal] + CCCCn1cc[n+](C)c1.COP(=O)([O-])OC,2.66 ± 0.18,2.74 ± 0.19,2.82 ± 0.19,2.97 ± 0.2,–,–,–,–
CCCCO [butan-1-ol] + CCCCn1cc[n+](C)c1.[Cl-],–,–,–,–,0.558 ± 0.04,0.594 ± 0.042,0.635 ± 0.044,0.68 ± 0.046
C#CCCCCC [1-heptyne] + CCCCn1cc[n+](C)c1.[Cl-],11.6 ± 0.79,12.3 ± 0.84,12.7 ± 0.87,13.3 ± 0.91,–,–,–,–
CCC(C)O (stereo not drawn) [butan-2-ol] + CCCCn1cc[n+](C)c1.COP(=O)([O-])OC,–,–,–,–,0.327 ± 0.032,0.365 ± 0.033,0.406 ± 0.034,0.451 ± 0.036

Structure (SMILES),activity coefficient (358.15 K),activity coefficient (368.15 K),activity coefficient (378.15 K),activity coefficient (388.15 K),activity coefficient (398.15 K),activity coefficient (408.15 K),activity coefficient (418.15 K),activity coefficient (428.15 K)
CC#N [acetonitrile] + CCCCn1cc[n+](C)c1.[Cl-],1.12 ± 0.07,1.16 ± 0.07,1.21 ± 0.08,1.28 ± 0.08,–,–,–,–
CCC(C)O (stereo not drawn) [butan-2-ol] + CCCCn1cc[n+](C)c1.[Cl-],–,–,–,–,0.749 ± 0.049,0.804 ± 0.052,0.865 ± 0.055,0.931 ± 0.059
"C1COCCO1 [1,4-dioxane] + CCCCn1cc[n+](C)c1.[Cl-]",3.47 ± 0.24,3.55 ± 0.24,3.65 ± 0.25,3.74 ± 0.25,–,–,–,–
C=Cc1ccccc1 [styrene] + CCCCn1cc[n+](C)c1.COP(=O)([O-])OC,2.79 ± 0.19,2.93 ± 0.2,3.06 ± 0.21,3.26 ± 0.22,–,–,–,–
"Cc1cccc(C)c1 [1,3-dimethylbenzene] + CCCCn1cc[n+](C)c1.CS(=O)(=O)[O-]",9.27 ± 0.63,9.43 ± 0.64,9.57 ± 0.65,9.92 ± 0.68,–,–,–,–
CCc1ccccc1 [ethylbenzene] + CCCCn1cc[n+](C)c1.COP(=O)([O-])OC,5.73 ± 0.39,5.87 ± 0.4,5.97 ± 0.41,6.26 ± 0.43,–,–,–,–
CCC(=O)CC [pentan-3-one] + CCCCn1cc[n+](C)c1.CS(=O)(=O)[O-],4.68 ± 0.32,4.79 ± 0.33,4.88 ± 0.33,5.09 ± 0.35,–,–,–,–
C1CCOC1 [tetrahydrofuran] + CCCCn1cc[n+](C)c1.[Cl-],5.66 ± 0.39,5.67 ± 0.39,5.67 ± 0.39,5.7 ± 0.39,–,–,–,–
C1=CCCCC1 [cyclohexene] + CCCCn1cc[n+](C)c1.COP(=O)([O-])OC,7.15 ± 0.49,7.13 ± 0.49,7.11 ± 0.48,7.11 ± 0.48,–,–,–,–
CCC[N+](=O)[O-] [1-nitropropane] + CCCCn1cc[n+](C)c1.[Cl-],2.51 ± 0.17,2.61 ± 0.18,2.69 ± 0.18,2.8 ± 0.19,–,–,–,–
C1=CCCCC1 [cyclohexene] + CCCCn1cc[n+](C)c1.[Cl-],22.8 ± 1.6,22.3 ± 1.5,21.5 ± 1.5,21.3 ± 1.5,–,–,–,–
CC(C)=O [acetone] + CCCCn1cc[n+](C)c1.COP(=O)([O-])OC,1.92 ± 0.13,1.96 ± 0.13,2.02 ± 0.14,2.1 ± 0.14,–,–,–,–
c1ccsc1 [thiophene] + CCCCn1cc[n+](C)c1.COP(=O)([O-])OC,1.24 ± 0.08,1.35 ± 0.09,1.43 ± 0.09,1.53 ± 0.1,–,–,–,–
Cc1ccccc1 [toluene] + CCCCn1cc[n+](C)c1.CS(=O)(=O)[O-],5.32 ± 0.36,5.45 ± 0.37,5.68 ± 0.39,5.84 ± 0.4,–,–,–,–
CCC(=O)CC [pentan-3-one] + CCCCn1cc[n+](C)c1.[Cl-],7.6 ± 0.52,7.72 ± 0.53,7.78 ± 0.53,7.97 ± 0.54,–,–,–,–
C#CCCCCC [1-heptyne] + CCCCn1cc[n+](C)c1.CS(=O)(=O)[O-],12 ± 0.82,12.6 ± 0.86,13.3 ± 0.91,14.1 ± 0.96,–,–,–,–
C1CCCCCCC1 [cyclooctane] + CCCCn1cc[n+](C)c1.CS(=O)(=O)[O-],57.1 ± 3.9,55.7 ± 3.8,54.4 ± 3.7,53.6 ± 3.7,–,–,–,–
c1ccccc1 [benzene] + CCCCn1cc[n+](C)c1.CS(=O)(=O)[O-],3.08 ± 0.21,3.19 ± 0.22,3.29 ± 0.22,3.46 ± 0.24,–,–,–,–
C1CCCCC1 [cyclohexane] + CCCCn1cc[n+](C)c1.COP(=O)([O-])OC,12.3 ± 0.84,11.9 ± 0.81,11.6 ± 0.79,11.4 ± 0.78,–,–,–,–
CCCCCCCCCC [decane] + CCCCn1cc[n+](C)c1.COP(=O)([O-])OC,93.4 ± 6.4,88.5 ± 6.1,84.7 ± 5.8,81.6 ± 5.6,–,–,–,–
CCCC(C)=O [pentan-2-one] + CCCCn1cc[n+](C)c1.COP(=O)([O-])OC,3.63 ± 0.25,3.7 ± 0.25,3.78 ± 0.26,3.94 ± 0.27,–,–,–,–
CCCCCCCCCC [decane] + CCCCn1cc[n+](C)c1.[Cl-],704 ± 48,638 ± 44,580 ± 40,560 ± 39,–,–,–,–
C#CCCCC [1-hexyne] + CCCCn1cc[n+](C)c1.COP(=O)([O-])OC,3.01 ± 0.2,3.22 ± 0.22,3.39 ± 0.23,3.57 ± 0.24,–,–,–,–

# — the NIST ThermoML archive (doi:10.1016/j.jct.2015.07.042)
